According to patent publication US6713505B2, “spla2 inhibitors” (Eli Lilly and Company, priority 2000, dated 2004):

biological target: T1, recombinant human secreted phospholipase A2 (Homo sapiens, UniProt P14555); experiment: chromogenic assay for inhibitors of recombinant human secreted phospholipase A2; assay type: biochemical; details: diheptanoyl thio-PC substrate, pH 7.5, 40° C. for 30 minutes, absorbance at 405 nanometers, triplicate
T1 sequence (P14555 21-144): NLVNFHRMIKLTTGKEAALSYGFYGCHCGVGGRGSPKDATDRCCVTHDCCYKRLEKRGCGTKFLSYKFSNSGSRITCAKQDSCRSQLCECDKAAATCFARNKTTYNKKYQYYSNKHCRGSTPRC
Source text: The following chromogenic assay procedure was used to identify and evaluate inhibitors of recombinant human secreted phospholipase A2. The assay described herein has been adapted for high volume screening using 96 well microtiter plates. A general description of this assay method is found in the article, “Analysis of Human Synovial Fluid Phospholipase A2 on Short Chain Phosphatidylcholine-Mixed Micelles: Development of a Spectrophotometric Assay Suitable for a Microtiterplate Reader”, by Laure J. Reynolds, Lori L. Hughes, and Edward A Dennis, Analytical Biochemistry, 204, pp. 190-197, 1992 (the disclosure of which is incorporated herein by reference):
Adjust pH to 4.5 with acetic acid
DTNB—5,5′-dithiobis-2-nitrobenzoic acid
RACEMIC DIHEPTANOYL THIO—PC
racemic 1,2-bis(heptanoylthio)-1,2-dideoxy-sn-glycero-3-phosphorylcholine
TRITON X-100™ prepare at 6.249 mg/ml in reaction buffer to equal […].
A measured volume of racemic dipheptanoyl thio PC supplied in chloroform at a concentration of 100 mg/ml is taken to dryness and redissolved in 10 millimolar TRITON X-100™ nonionic detergent aqueous solution. Reaction Buffer is added to the solution, then DTNB to give the Reaction Mixture.
The reaction mixture thus obtained contains 1 mM diheptanoly thio-PC substrate, 0.29 mm Triton X-100™ detergent, and 0.12 mm DTMB in a buffered aqueous solution at pH 7.5.
1. Add 0.2 ml reaction mixture to all wells;
2. Add 10 ul test compound (or solvent blank) to appropriate wells, mix 20 seconds;
3. Add 50 nanograms of sPLA2 (10 microliters) to appropriate wells;
4. […]
5. Read absorbance of wells at 405 nanometers with an automatic plate reader.
Tests were done in triplicate. […] Compounds initially found to be active were re-assayed to confirm their activity and, if sufficiently active, IC50 values were determined. […] In all cases, % inhibition measured at 405 nanometers generated by enzyme reactions containing inhibitors relative to the uninhibited control reactions was determined. […] IC50 values were determined by plotting log concentration versus inhibition values in the range from 10-90% inhibition.

Point of comparison: `CCc1sc2cccc(OCC(=O)N[C@@H](CC(C)C)C(=O)OC)c2c1C(=O)C(N)=O` [Example 2, 2(S)-[2-[(3-aminooxalyl-2-ethylbenzo [b]thiophen-4-yl)oxy]acetylamino]-4-methylpentanoic cid methylester], IC50 64.8 µM. Against it:
- CCc1sc2cccc(OCC(=O)O)c2c1C(=O)C(N)=O [Example 1, (3-aminooxalyl-2-ethylbenzo[b]thiophen-4-yloxy)acetic acid] — 46-fold lower, 1.41 µM
- CCc1sc2cccc(OCC(=O)N[C@@H](CC(C)C)C(=O)O)c2c1C(=O)C(N)=O [Example 3, 2(S)-[2-[(3-aminooxalyl-2-ethylbenzo [b]thiophen-4-yl)oxy]acetylamino]-4-methylpentanoic acid] — 6.1-fold lower, 10.6 µM
